In one test the target is T1, heparanase (Homo sapiens, UniProt Q9Y251).
T1 sequence (Q9Y251 158-543 limits assumed): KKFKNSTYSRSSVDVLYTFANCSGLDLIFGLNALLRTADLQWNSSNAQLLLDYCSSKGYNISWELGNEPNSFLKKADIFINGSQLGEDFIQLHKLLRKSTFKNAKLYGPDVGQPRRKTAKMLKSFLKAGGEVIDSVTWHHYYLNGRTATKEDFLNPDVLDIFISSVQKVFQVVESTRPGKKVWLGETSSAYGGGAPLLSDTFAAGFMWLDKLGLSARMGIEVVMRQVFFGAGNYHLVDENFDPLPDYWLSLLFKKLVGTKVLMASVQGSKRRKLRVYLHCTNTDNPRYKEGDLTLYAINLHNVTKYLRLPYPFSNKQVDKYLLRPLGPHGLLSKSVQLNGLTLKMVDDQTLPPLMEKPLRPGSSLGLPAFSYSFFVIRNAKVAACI
T1 sequence (Q9Y251 36-109 limits assumed): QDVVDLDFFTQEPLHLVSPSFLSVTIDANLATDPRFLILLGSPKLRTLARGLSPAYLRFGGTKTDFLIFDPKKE
The experiment in a line: AGA*IA assay: colorimetric fondaparinux cleavage assay for heparanase inhibition (WST-1). It counts as biochemical. Conditions: 2.5 nM heparanase, 100 µM fondaparinux, pH 5.0, 3 h at 37°C; class symbols. Here is the method: All compounds were tested in a simple, accurate and robust microplate assay based on the cleavage of the synthetic heparin fragment, the pentasaccharide Fondaparinux (AGA*IA). This assay was originally developed by Hammond and coworkers [Hammond E, Li CP, Ferro V. Development of a colorimetric assay for heparanase activity suitable for kinetic analysis and inhibitor screening. Anal. Biochem. 396(1), 112-116 (2010)], where Fondaparinux corresponds to the methyl glycoside of the antithrombin III (ATIII)-activating pentasaccharide sequence of heparin. Fondaparinux is cleaved by heparanase to generate a reducing disaccharide, which can be quantitatively measured via a colorimetric or a fluorescence assay, the last by the fluorescent sensor polymer-H [Schiemann S, Lühn S, Alban S. Development of both colorimetric and fluorescence heparinase activity assays using fondaparinux as substrate. Anal. Biochem. 427(1), 82-89 (2012)].
The assay measures the appearance of the disaccharide product of heparanase-catalyzed fondaparinux cleavage colorimetrically using the tetrazolium salt WST-1. Assay was essentially performed as described with minor modifications. Briefly, NUNC ELISA 96-well plates were pre-treated with a solution of 4% BSA (bovin serum albumin) in phosphate-buffered saline containing 0.05% Tween 20 (PBST), for 2 h at 37°C, then washed three times with PBST, dried by tapping on paper towel and stored at -20°C. Before use, once again, the plates were washed with PBST.
Assay was carried out with 100 µl/well of assay solution containing 40 mM sodium acetate buffer (pH 5.0), 100 µM fondaparinux, 2.5 nM heparanase and serial dilutions of test compounds (tested in triplicate). Plates were sealed with adhesive tape and incubated, in the dark, for 3 h at 37°C, followed by development with 1.69 mM of the tetrazolium salt WST-1 solution in 0.1 M NaOH, for 1 h at 60°C. Then, the absorbance at 560 nm was measured through a microplate reader (Victor 3, Perkin Elmer).
Finally, the measurements were corrected by subtracting both the reagent background and the inner absorbance value of test compound.
A general note: Formazan colour is commonly taken as a measure of viable cells.

Test [1] deals with HT1080 (human fibrosarcoma). The experiment in a line: SRB Cell Cytotoxicity Assay, HT1080. In kind it is cell-based. Conditions: HT-1080, HT1080, 72h treatment, read-out: Concentration (µM) of test compounds at which the cell growth is inhibited by 50 %. HT1080. The source says:
(§1) SRB Cell Cytotoxicity Assay is an assay based upon the quantitative staining of cellular proteins by sulforhodamine B (SRB). This assay can be used for high-throughput drug screening (Vichai & Kirkitara, Nature Protocol. 2006, 1, 112). Sulforhodamine B is an anionic aminoxanthene dye that forms an electrostatic complex with the basic amino acid residues of proteins under moderately acid conditions, which provides a sensitive linear response.
(§2) To assess a putative antiproliferative activity of the selected compounds, HT1080 (human fibrosarcoma), U87MG (human glioblastoma astrocytoma) and U2OS (human osteosarcoma) cell lines were treated for 72h, in triplicate, with increasing concentrations of heparanase inhibitors. Inhibition of cell proliferation was then measured by the classical colorimetric SRB Cell Cytotoxicity assay. Absorbance was measured by spectrophotometer at a wavelength of 510 nm and cell proliferation was determined as percent with respect to control cells (cells treated with the vehicle alone). EC50 values were then determined by GraphPad Prism.

Test [2] has as its system U87MG (human glioblastoma astrocytoma). Briefly: SRB Cell Cytotoxicity Assay, U87MG. It counts as cell-based. As to conditions: U-87 MG, 72h treatment, read-out: Concentration (µM) of test compounds at which the cell growth is inhibited by 50 %. U87MG.
Excerpt: as §1, §2

Test [3] deals with U2OS (human osteosarcoma). The experiment in a line: SRB Cell Cytotoxicity Assay, U2OS. It counts as cell-based. Conditions: 72h treatment, read-out: Concentration (µM) of test compounds at which the cell growth is inhibited by 50 %. U2OS.
Excerpt: as §1, §2

For test [4], the system named is HT1080 (human fibrosarcoma). The experiment in a line: Matrigel cell invasion assay, HT1080. In kind it is cell-based. Here is the method:
(§3) Heparanase inhibitors were then evaluated for their activity on the invasive potential of HT1080 (human fibrosarcoma), U87MG (human glioblastoma astrocytoma) and U2OS (human osteosarcoma) human cell lines, using the Matrigel cell invasion assay which allows to assess the cell invasion ability of malignant and normal cells.
(§4) Invasion assay was performed using BioCoat cell culture inserts (BioCoat 8.0µm PET Membrane 24 Well Permeable Supports, Corning). Filters were coated with 100 µl of 300 µg/ml Matrigel dissolved in coating buffer (0.01 M Tris pH 8.0, 0.7% NaCl) (Becton-Dickinson Sciences). DMEM (Dulbecco's Modified Eagle's Medium) containing 5% FBS was added to the lower chambers. Cells were pre-treated with heparanase inhibitors for 24 h, detached and added to the upper chambers in media containing the inhibitors. Cells were allowed to invade for 24 h at 37°C in a CO2 incubator and then unmigrated cells were removed from the upper chamber with a cotton swab. The invading cells were fixed, stained with 0.1% crystal violet for 10 min at room temperature, photographed and counted under inverted microscope.
(§5) Test compounds were analyzed at fixed concentration (2.5 µM) for several fields, in duplicates. Activity of test compounds was compared to the reference compound. Activity of most interesting compound was confirmed in a second cell invasion assay. Data were expressed as the percent invasion with respect to cell migration through uncoated insert membrane (see Table 3 below)
(§6) Table 3. […] In Invasion assay, data were expressed as the percent invasion (range) with respect to cell migration through uncoated insert membrane. In Adhesion assay, data were expressed as the percent of adhesion with respect to the control (100%). • Legend • ++: 50-90% • + : < 50% • - : Not Active

In test [5] the test system is U87MG (human glioblastoma astrocytoma). Briefly: Matrigel cell invasion assay, U87MG. On the set-up: key to Invasion Assay Inhibition U87MG: ++: 50-90%; +: < 50%; -: Not Active. In kind it is cell-based. The procedure:
as §3, §4, §5, §6

For test [6], the system named is U2OS (human osteosarcoma). The experiment in a line: Matrigel cell invasion assay, U2OS. In kind it is cell-based. On the set-up: key to Invasion Assay Inhibition U2OS: ++: 50-90%; +: < 50%; -: Not Active. The procedure:
as §3, §4, §5, §6

Test [7] has as its system HT1080 (human fibrosarcoma). Briefly: Cell adhesion assay on matrigel coated wells, HT1080. In kind it is cell-based. As to conditions: percent of adhesion with respect to the control (100%). The procedure:
(§7) Cell surface, non-integrin molecules such as heparan sulfate proteoglycans (HSPGs) may be involved in the regulation of early adhesive stages of cell-ECM interactions. A cell adhesion assay has been employed to determine if the newly designed heparanase inhibitors were able to interfere with adhesion properties of cancer cells.
(§8) HT1080 (human fibrosarcoma) and U87MG (human glioblastoma astrocytoma) cells were treated for 18-20 h with test compounds in complete medium supplemented with 10% FCS. Then cells were collected, washed in complete medium, and added to matrigel coated wells in triplicate, at previously identified optimal seeding density, and incubated at 37 °C in complete medium for times ranging from 15 minutes to 4h, according to the cell line. After incubation, the wells were washed three times with serum-free medium and the remaining firmly attached cells were stained with crystal-violet 0.1%. Optical density was measured at 560 nm by Victor 3 (Perkin-Elmer) plate analyzer. Each experiment was repeated three times.
as §6

The subject of test [8] is U87MG (human glioblastoma astrocytoma). The experiment in a line: Cell adhesion assay on matrigel coated wells, U87MG. In kind it is cell-based. As to conditions: percent of adhesion with respect to the control (100%). The procedure:
as §7, §8, §6

pIC50: −log10 of the molar value.

The term pIC50 denotes the IC50 on a negative log10 scale, so that one unit is a factor of ten. Usually inhibition stands for the share of the control response that was lost under treatment. The molecule `C[C@H](NC(=O)Cc1ccc2oc(-c3ccc(NC(=O)Nc4ccc(-c5nc6cc(CC(=O)N[C@@H](C)C(=O)O)ccc6o5)cc4F)c(F)c3)nc2c1)C(=O)O` [Compound 27, (2S,2'S)-2,2'-((2,2'-(((Carbonylbis(azanediyl))bis(3-fluoro-4,1-phenylene))bis(benzo[d]oxazole-2,5-diyl))bis(acetyl))bis(azanediyl))dipropionic acid] had a negative logarithm of the IC50 (pIC50) against heparanase of 6.31 to 7.30. Also, the EC50 in test [1], in test [2] and in [3] was greater than 10 µM throughout. In addition, the inhibition at 2.5 µM in test [4] (HT-1080, HT1080, test compound at 2.5 µM, 24 h pre-treatment, 24 h invasion) was less than 50%; in test [5] (Homo sapiens, U-87 MG, test compound at 2.5 µM, 24 h pre-treatment, 24 h invasion) it was 50 to 90%; in test [6] (Homo sapiens, test compound at 2.5 µM, 24 h pre-treatment, 24 h invasion), less than 50%. In addition, the “Adhesion Assay (%) HT1080” value in test [7] (HT1080, test compound at 2.5 µM) is 90.94%. For the same molecule, in test [8] (test compound at 2.5 µM), the “Adhesion Assay (%) U87MG” value was 61.10%.
With `Cc1ccc(C(=O)Nc2ccc(S(=O)(=O)O)c3cc(S(=O)(=O)O)cc(S(=O)(=O)O)c23)cc1NC(=O)c1cccc(NC(=O)Nc2cccc(C(=O)Nc3cc(C(=O)Nc4ccc(S(=O)(=O)O)c5cc(S(=O)(=O)O)cc(S(=O)(=O)O)c45)ccc3C)c2)c1` [Suramin, reference compound], the EC50 in [1], in test [2] and in test [3] was greater than 10 µM in each case. Moreover, the inhibition at 10 µM in test [4] (HT-1080, HT1080, reference compound at 10 µM) was less than 50%. Moreover, in test [5] (reference compound at 10 µM), the “Invasion Assay Inhibition U87MG” value was “-”. Further, in test [6] (reference compound at 10 µM), the “Invasion Assay Inhibition U2OS” value was “-”. Also, the “Adhesion Assay (%) HT1080” value in test [7] (HT1080, reference compound at 10 µM) is 72.98%. In [8] (reference compound at 10 µM), the “Adhesion Assay (%) U87MG” value is reported as 100%.

For the origin of these results see patent EP3381907A1, “SYMMETRICAL 2-AMINOPHENYL-BENZAZOLYL-5-ACETATE COMPOUNDS AND THEIR USE AS ANTI-HEPARANASE” (Leadiant Biosciences SA, priority 2017, dated 2018).
